Experimental data reported in patent publication EP0293146A1, “Benzofuro [3,2-c] quinoline compounds” (Kissei Pharmaceutical Co Ltd, priority 1987, dated 1988).

Assays:
[1] = system: Femur was isolated from 10- to 11-day chick embryo; conditions: 100 µM
Experimental: Inhibitory effect of various compounds on bone resorption was tested according to the method described in "Advanced Tissue Cultures For In Vitro Assay And Production" (pages 111-114, edited by Isao Yamane & Hiroyoshi Endo, Published by SOFT SCIENCE, Inc. Tokyo).
Femur was isolated from 10- to 11-day chick embryo. After cleaned from adherent soft tissues, the preparation was precultivated in 1 ml of BGJb-HW2 culture medium containing benzofuro[3,2-c]quinoline derivatives of the present invention at 37° C for 24 hours using the roller-tube method. Tested compounds were dissolved in dimethylsulfoxide at a concentration of 0.1 M and the solution was diluted with the culture medium to make a final concentration of 10-^4 M of those compounds. In the case of control group, the same volume of dimethylsulfoxide was added.
On the next day, the precultivated femur was further cultivated for 2 hours at 37° C in 1 ml of fresh culture medium containing 1 µCi/ml of ^45CaCl2 to label the bone mineral with ^45Ca. Then, the cultivated bone was rinsed with a phosphate-buffered saline warmed at 37' C to remove ^45Ca adhered to the bone. ^45Ca-Labelled bone was again cultivated using the roller-tube method (10 revolutions/hr), and the radioactivity of ^45Ca in an aliquot of the culture medium was determined by liquid scintillation counter at a point of 12, 24, 48 and 72 hours, respectively. The culture medium was freshed at each determination of the radioactivity. After completion of the cultivation, the bone was immersed in 1 ml of 1 N HCI for 24 hours to elute all calcium in the bone, and the remaining radioactivity in the bone was determined.
From the obtained data, the rate of remaining radioactivity of the bone to the initial radioactivity of the bone was measured at each observation. Then the eluting rate of bone mineral by osteoclasts was obtained by linear-regression of decay curve for the rate of remaining radioactivity in the bone after 24 to 72 hours of the cultivation, and turnover rate of calcium in the bone mineral accumulated in the cultivated bone was estimated as biological half-life (T1/2).
The potency of the inhibition of presented compounds was calculated by the following equation using T1/2.

[2] = system: Femur was isolated from 9-day chick embryo; test: Stimulatory effect on ossification (femur organ culture, calcium content); type: cell-based; conditions: 10-^5 M; cultivated for 6 days; eluted calcium versus paired control femur; mean value of 6 observations
Experimental: Stimulatory effect of various compounds on ossification was tested according to the method described in "Advanced Tissue Cultures For In Vitro Assay And Production" (pages 111-114, edited by Isao Yamane & Hiroyoshi Endo, Published by SOFT SCIENCE, Inc. Tokyo).
Femur was isolated from 9-day chick embryo. After cleaned from adherent soft tissues, one femur of a paired femur was used for a test of compound of the present invention, and the other femur was used as control group. One preparation was placed directly on the inner surface of a glass roller-tube, and 2 ml of BGJb-HW2 culture medium was added to each tube. Each preparation was cultivated at 37° C by the roller-tube method (10 revolutions/hr) for 6 days. During the cultivation, femur length was measured, and the culture medium was freshed every other day. Tested compounds were dissolved in dimethylsulfoxide at a concentration of 0.01 M and the solution was diluted by the culture medium to make a final concentraiton of 10-^5 M of those compounds. In the case of control group, the same volume of dimethylsulfoxide was added.
After completion of the cultivation, the bone was immersed in 1 N HCI for 24 hours to elute all calcium in the bone, and the eluted calcium was determined by chelating method using orthocresolphthalein.
The potency of the stimulatory effect on ossification of presented compounds was calculated by the following equation. [formula]
The results are shown in the following table as the mean value of 6 observations.

[3] = system: femur of rats loaded low calcium diets; test: Effect on calcium and phosphorus contents in femur of rats loaded low calcium diets; type: in vivo, male Wistar rats; conditions: 300 mg/kg orally once a day for 2 weeks, mean±standard error of the mean of 10 observations
Experimental: Twenty male Wistar rats of 3 weeks age were divided into 2 groups. All animals were raised with low calcium diets. Test compound, 3,9-dihydroxy-5H-benzofuro [3,2-c]quinolin-6-one (compound 2) suspended in 0.5% sodium carboxymethyl cellulose solution (CMC) was orally administered to 1 group at a dose of 300 mg/kg once a day for 2 weeks. Another group recieved the same volume of CMC. After completion of the experiment, calcium and phosphorus contents in the femur were determined.
The results were shown in the following table as mean±standard error of the mean of 10 observations.

Structure (SMILES) | Inhibitory potency on bone resorption [1] | other results
CCOC(=O)C(C)Oc1ccc2c(c1)[nH]c(=O)c1c3ccc(OC(C)C(=O)OCC)cc3oc21 (stereo not drawn) [Compound 12, 3,9-Bis(1-ethoxycarbonylethoxy)-5H-benzofuro[3,2-c]quinolin-6-one] | 1.16 | –
O=c1[nH]c2cc(OCCCO)ccc2c2oc3cc(O)ccc3c12 [Compound 11, 9-Hydroxy-3-(3-hydroxypropoxy)-5H-benzofuro[3,2-c]quinolin-6-one] | 2.89 | Stimulatory potency on ossification [2]: 1.14
CC(C)Oc1ccc2c(c1)[nH]c(=O)c1c3ccc(O)cc3oc21 [Compound 9, 9-Hydroxy-3-isopropoxy-5H-benzofuro[3,2-c]quinolin-6-one] | 2.89 | Stimulatory potency on ossification [2]: 1.08
O=c1[nH]c2cc(O)ccc2c2oc3ccccc3c12 [Compound 1, 3-Hydroxy-5H-benzofuro[3,2-c]quinolin-6-one] | 1.24 | –
O=c1[nH]c2cc(OCCCO)ccc2c2oc3ccccc3c12 [Compound 5, 3-(3-Hydroxypropoxy)-5H-benzofuro[3,2-c]quinolin-6-one] | 1.26 | –
CCOC(=O)C(C)Oc1ccc2c(c1)[nH]c(=O)c1c3ccccc3oc21 (stereo not drawn) [Compound 6, 3-(1-Ethoxycarbonylethoxy)-5H-benzofuro[3,2-c]quinolin-6-one] | 1.10 | –
CC(Oc1ccc2c(c1)[nH]c(=O)c1c3ccccc3oc21)C(=O)O (stereo not drawn) [Compound 7, 3-(1-Carboxyethoxy)-5H-benzofuro[3,2-c]quinolin-6-one] | 1.10 | –
CC(C)Oc1ccc2c(c1)[nH]c(=O)c1c3ccccc3oc21 [Compound 4, 3-Isopropoxy-5H-benzofuro[3,2-c]quinolin-6-one] | 1.16 | –
CC(C)Oc1ccc2c(c1)[nH]c(=O)c1c3ccc(OC(C)C)cc3oc21 [Compound 8, 3,9-Diisopropoxy-5H-benzofuro[3,2-c]quinolin-6-one] | 1.24 | –
O=c1[nH]c2cc(O)ccc2c2oc3ccc(O)cc3c12 [Compound 3, 3,8-Dihydroxy-5H-benzofuro[3,2-c]quinolin-6-one] | 2.52 | –
COc1ccc2c(c1)[nH]c(=O)c1c3ccc(OC)cc3oc21 [Compound 13, 3,9-Dimethoxy-5H-benzofuro[3,2-c]quinolin-6-one] | 1.04 | –
O=c1[nH]c2cc(O)ccc2c2oc3cc(O)ccc3c12 [Compound 2, 3,9-Dihydroxy-5H-benzofuro[3,2-c]quinolin-6-one] | 1.97 | Stimulatory potency on ossification [2]: 1.11; Amount of calcium (mg/femur) [3]: 8.1±0.50 mg/femur; Amount of phosphorus (mg/femur) [3]: 5.1±0.26 mg/femur
O=c1[nH]c2cc(OCCCO)ccc2c2oc3cc(OCCCO)ccc3c12 [Compound 10, 3,9-Bis(3-hydroxypropoxy)-5H-benzofuro[3,2-c]quinolin-6-one] | 1.40 | –
